Reference: EP2307018B1, “OXYMATRINE COMPOSITIONS AND USE THEREOF FOR TREATING AND PREVENTING CHRONIC INFECTIOUS DISEASES” (Chia, John K.S., priority 2008, dated 2010)

Tests used:
[1] = test system: enterovirus; experiment: open-label, controlled oxymatrine clinical study in ME/CFS patients with enterovirus infection; assay type: in vivo, human
Experimental: An open-label, controlled study was conducted on patients who fulfilled the international criteria for myalgic encephalomyelitis (ME)/chronic fatigue syndrome (CFS) and had virological evidence of enterovirus infection.
One hundred patients took oxymatrine at dose of 200-300 mg twice a day with or without food for a minimum of three months. Patients who could not complete the course due to side effects or intolerance were considered as failures (intent-to-treat analysis). Of the first group, 52% (52/100) responded to oxymatrine, as compared to 6% (7/114) of the control groups (p <0.000001, X^2 test). Of the next 104 patients, 52% responded to treatment. […] Fifty-three percent (57/107) of patients with elevated […] (CVB) and echovirus (Ech) antibody responded to therapy and 50% (49/97) of patients with non-typeable EV infections improved (NS, X^2 test). Fifty-two percent (47/91) of patients with positive EV protein in stomach biopsies responded, whereas 56% (5/9) of patients with negative biopsies responded (NS, X^2 test).

[2] = test system: cytokine gene expression; experiment: cytokine gene expression study on blood samples before and after oxymatrine (FIG. 4); assay type: in vivo, human; conditions: blood samples before and after taking oxymatrine for 15 months, one patient
Source text: A cytokine gene expression study on blood samples before (Sample 2) and after (Sample 3) taking oxymatrine for 15 months in one patient, is graphically illustrated in FIG. 4. […] FIG. 5 illustrates that neutralizing antibodies CBV 3 and CBV 4 were obtained serially over a three year period (performed by ARUP laboratory, Salt Lake City, UT).

[3] = test system: enterovirus protein; experiment: immunoperoxidase staining of stomach biopsy before and after oxymatrine; assay type: in vivo, human; conditions: one patient (case 5), after taking oxymatrine for 6 months, correlated with symptomatic improvement
Source text: FIG. 2 illustrates immunoperoxidase staining for enterovirus protein in a stomach biopsy before oxymatrine therapy for one patient. […] The decrease in viral protein correlated with significant symptomatic improvement.

[4] = test system: enterovirus; experiment: case report Example 3, treatment of chronic fatigue; assay type: in vivo, human
Experimental: A person who had recurrent episodes of debilitating fatigue became totally incapacitated after approximately 17 years. The patient was treated with a combination of alpha and gamma interferon for six weeks with acceptable results. They went into remission but relapsed nine months later after developing a minor upper respiratory infection. They improved minimally after several months of bed rest, but was barely able to work six hours per day. They had brain fog, myalgia (7/10 pain) and was barely able to walk even 1-2 blocks.
Three days after taking oxymatrine at a dose of 300 mg bid, the myalgia intensified (10/10 pain), especially one hour after taking the pills. One week after starting oxymatrine, routine laboratory tests including CBC, chemistry panel and creatine phosphokinase (CPK) were normal. They continued having significant fatigue and myalgia for the next three weeks, but the symptoms resolved one week after stopping the medication. Mild increase in myalgia recurred three days after resuming oxymatrine, but resolved after continuing the medication for the next two weeks. The patient felt well at the end of three months with minimal discomfort in a few muscle groups.
Severe myalgia recurred after resuming vigorous exercise for three weeks while taking oxymatrine. They had to stop exercise for the two months allowing cessation of myalgia. After taking oxymatrine for six months, the patient felt well. Over the next six months after stopping the medication, the patient continuously performed heavy physical activities without significant difficulty. After developing another episode of upper respiratory symptoms, their symptoms relapsed. They have resumed oxymatrine but experienced increasing myalgia as the fatigue improved.

[5] = test system: enterovirus; experiment: case report Example 5, treatment of chronic fatigue; assay type: in vivo, human
Experimental: A person developed debilitating fatigue, sore throat, oral ulcers, vertigo, headaches and cognitive dysfunction two months after having a flu-like illness. […] Approximately four years later, the patient started taking oxymatrine. After an initial increase of gastrointestinal symptoms for the first two weeks, the patient tolerated 500 mg per day of oxymatrine.
The symptoms continued for two weeks and resolved after stopping oxymatrine. […] They continued to improve for 12 months after taking the medication.

[6] = test system: varicella-zoster virus (VZV); experiment: case report Example 9, chronic recurrent varicella-zoster virus infection (shingles); assay type: in vivo, human; conditions: 200 mg bid
Experimental: A person developed recurrent shingles after multiple episodes of sinus infections and sinus surgeries. They also had chronic indigestion and nausea. Fatigue became so severe that they were bedridden for several years.
Coxsackievirus B4 antibody was 1:320. […] The patient was started on oxymatrine 200 mg bid.

[7] = case report Example 11, treating diarrhea; assay type: in vivo, human; conditions: after starting 200 mg bid
Source text: A person developed continuing watery diarrhea, as many as twenty episodes a day, and mild fatigue for three months. Laboratory studies and stool work-up were completely negative. […] They failed Asacol therapy.

[8] = test system: enterovirus; experiment: case report Example 12, treating diarrhea; assay type: in vivo, human
Source text: A person developed severe watery diarrhea for two months. Stool evaluation was unremarkable. […] They continued to do well for six months on the medication.

[9] = test system: coxsackievirus B; conditions: in vitro; mechanism not defined; cited from earlier work
[10] = test system: echoviruses; conditions: in vitro; mechanism not defined; cited from earlier work
[11] = test system: hepatitis B; conditions: oral, after one year of treatment; comparable to interferon-α injection; cited from earlier work
[12] = side effects in 176 patients having taken oxymatrine

O=C1CCC[C@@H]2[C@H]3CCC[N+]4([O-])CCC[C@@H](CN12)[C@@H]34 (stereo partly drawn) [oxymatrine]
changes of other chemistry parameters and complete blood counts (CBC) ([1]; compared to baseline values): no significant changes | patients who relapsed responded to restart of oxymatrine ([1]; eighty-seven percent): 13/15 | patients responded to oxymatrine ([1]; first group (52/100), 200-300 mg twice a day, minimum three months, intent-to-treat, control groups 6% (7/114), p <0.000001): 52% | patients reporting transient, moderate increase in pre-existing symptoms ([1]; human, in vivo): more than 50% | patients with elevated blood pressure that prompted discontinuation of therapy ([1]; human, in vivo): 2/204 | serious complications during therapy ([1]; human, in vivo): No serious complications | tolerability ([1]; most of the patients, except for variable increase of pre-existing symptoms during the first 1-2 days of maximal doses): tolerated oxymatrine well | patients responded to treatment ([1]; next 104 patients): 52% | patients responded to therapy ([1]; patients with elevated chrysanthemum virus B (CVB) and echovirus (Ech) antibody, fifty-three percent): 57/107 | patients responded ([1]; patients with negative biopsies (5/9)): 56% | patients improved ([1]; patients with non-typeable EV infections (49/97)): 50% | patients responded ([1]; patients with positive EV protein in stomach biopsies, fifty-two percent): 47/91 | patients with transient increase in potassium ([1]; returned to normal without specific treatment): 2/204 | Diffuse rashes: % of total patients [1, 12]: < 1% | Dry eyes and mouth: % of total patients [1, 12]: 1% | Fevers: % of total patients [1, 12]: 2% | Herpes simplex virus outbreak after discontinuation: % of total patients [1, 12]: 1% | Increase in blood pressure: % of total patients [1, 12]: 1% | Increase in edema: % of total patients [1, 12]: 1% | Increased abdominal pain: % of total patients [1, 12]: 6% | Increased bladder symptoms: % of total patients [1, 12]: 2% | Increased diarrhea: % of total patients [1, 12]: 4% | Increased dizziness: % of total patients [1, 12]: 2% | Increased fatigue: % of total patients [1, 12]: 4% | Increased headache: % of total patients [1, 12]: 8% | Increased insomnia: % of total patients [1, 12]: 1% | Increased myalgia: % of total patients [1, 12]: 30% | Increased nausea: % of total patients [1, 12]: 6% | Increased palpitation, chest pain: % of total patients [1, 12]: 3% | Increased polyarthralgia: % of total patients [1, 12]: 1% | Increased sinus congestion: % of total patients [1, 12]: 3% | Inflammation of skin lesion: % of total patients [1, 12]: 1% | New rashes: % of total patients [1, 12]: < 1% | Seizure (petit mal): % of total patients [1, 12]: < 1% | Weight gain: % of total patients [1, 12]: 1% | patients who stopped oxymatrine due to intolerable side effects ([1]; within the first eight weeks, twenty patients): 10% | patients relapsed after discontinuation of oxymatrine ([1]; within two days to one month after discontinuation, fifty-nine percent): 19/32 | Th1 cytokines gene expression (interleukin-2, interleukin-12, interleukin-15) [2]: significant increase | regulatory Th2 cytokine gene expression (interleukin-10) [2]: significant decrease | viral protein by staining with enterovirus-specific monoclonal antibody (5 D8/1) [3]: significant reduction | clinical outcome ([4]; after taking oxymatrine for six months): felt well | clinical outcome ([4]; at the end of three months, minimal discomfort in a few muscle groups): felt well | routine laboratory tests including CBC, chemistry panel and creatine phosphokinase (CPK) ([4]; one week after starting oxymatrine): normal | myalgia (pain) ([4]; three days after taking 300 mg bid, 7/10 before): 10/10 | clinical outcome ([5]; three months after stopping oxymatrine): only had mild symptoms and was able to return to part-time work and regular exercise | adverse symptoms ([5]; two months after taking the medication, 500 mg per day, continued two weeks, resolved after stopping): severe diffuse ulcerations of the mouth mucosa, increasing headache, sinus congestion and severe myalgia | outbreaks of shingles [6]: less often and not as severe | clinical outcome ([6]; three months, previously bedridden): went back to full-time work | diarrhea [7]: resolved completely in a few days | diarrhea ([8]; after starting oxymatrine): resolved within one week | effect of decrease of medication to half the dose ([8]; resolved after increasing the dosage): relapse of the symptoms | growth inhibition of coxsackievirus B in cell cultures [9]: growth inhibition | growth inhibition of echoviruses in cell cultures [10]: growth inhibition | overall cure rate [11]: about 40%
